# According to the supplement of paper PMC10307832:
# Assays:
# Test in all cases: relative viability (nuclei count vs DMSO), 5 days (fraction); higher = more cells survive
# KN-93 + Lapatinib = compound: CN(C/C=C/C1=CC=C(C=C1)Cl)CC2=CC=CC=C2N(CCO)S(=O)(=O)C3=CC=C(C=C3)OC [KN-93] + CS(=O)(=O)CCNCc1ccc(-c2ccc3ncnc(Nc4ccc(OCc5cccc(F)c5)c(Cl)c4)c3c2)o1 [Lapatinib] (partner 2 µM)
# Method in brief: (§1)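 Relative viability divides the nuclei count in treated wells by that in vehicle wells. Lung cancer cell lines were seeded in 1536-well plates, dosed by pin tool the next day, and fixed and stained after 5 days in one step with final 0.05% Triton X-100, 1% formaldehyde and 1 ug/ml Hoechst. Dosing was a single drug or a fixed anchor-drug dose plus five library-drug doses (not always all listed) in √10 steps, and values are medians of duplicate plates imaged at 4×.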
# KN-93 + Phenformin = compound: CN(C/C=C/C1=CC=C(C=C1)Cl)CC2=CC=CC=C2N(CCO)S(=O)(=O)C3=CC=C(C=C3)OC [KN-93] + N=C(N)NC(=N)NCCc1ccccc1 [Phenformin] (partner 250 µM)
# Method in brief: as §1
# KN-93 + Dasatinib = compound: CN(C/C=C/C1=CC=C(C=C1)Cl)CC2=CC=CC=C2N(CCO)S(=O)(=O)C3=CC=C(C=C3)OC [KN-93] + Cc1nc(Nc2ncc(C(=O)Nc3c(C)cccc3Cl)s2)cc(N2CCN(CCO)CC2)n1 [Dasatinib] (partner 0.075 µM)
# Method in brief: as §1
# KN-93 + AZD7762 = compound: CN(C/C=C/C1=CC=C(C=C1)Cl)CC2=CC=CC=C2N(CCO)S(=O)(=O)C3=CC=C(C=C3)OC [KN-93] + NC(=O)Nc1cc(-c2cccc(F)c2)sc1C(=O)N[C@H]1CCCNC1 [AZD7762] (partner 0.2 µM)
# Method in brief: as §1
# KN-93 + Alpelisib = compound: CN(C/C=C/C1=CC=C(C=C1)Cl)CC2=CC=CC=C2N(CCO)S(=O)(=O)C3=CC=C(C=C3)OC [KN-93] + Cc1nc(NC(=O)N2CCC[C@H]2C(N)=O)sc1-c1ccnc(C(C)(C)C(F)(F)F)c1 [Alpelisib] (partner 2 µM)
# Method in brief: as §1
Cell Line,relative viability (KN-93 + Lapatinib; first compound 0.08 µM),relative viability (KN-93 + Lapatinib; first compound 0.253 µM),relative viability (KN-93 + Lapatinib; first compound 2.53 µM),relative viability (KN-93 + Lapatinib; first compound 8 µM),relative viability (KN-93 + Phenformin; first compound 0.08 µM),relative viability (KN-93 + Phenformin; first compound 0.253 µM),relative viability (KN-93 + Phenformin; first compound 2.53 µM),relative viability (KN-93 + Phenformin; first compound 8 µM),relative viability (KN-93 + Dasatinib; first compound 0.08 µM),relative viability (KN-93 + Dasatinib; first compound 0.253 µM),relative viability (KN-93 + Dasatinib; first compound 2.53 µM),relative viability (KN-93 + Dasatinib; first compound 8 µM),relative viability (KN-93 + AZD7762; first compound 0.08 µM),relative viability (KN-93 + AZD7762; first compound 0.253 µM),relative viability (KN-93 + AZD7762; first compound 2.53 µM),relative viability (KN-93 + AZD7762; first compound 8 µM),relative viability (KN-93 + Alpelisib; first compound 0.08 µM),relative viability (KN-93 + Alpelisib; first compound 0.253 µM),relative viability (KN-93 + Alpelisib; first compound 2.53 µM),relative viability (KN-93 + Alpelisib; first compound 8 µM)
NCI-H1650,0.758,0.754,0.952,0.482,0.468,0.417,0.571,0.25,0.399,0.262,0.297,0.24,–,–,–,–,–,–,–,–
NCI-H1703,1.06,1.41,1.03,0.265,–,–,–,–,–,–,–,–,0.117,0.115,0.105,0.153,0.298,0.319,0.304,0.227
NCI-H2009,0.899,0.891,0.814,0.418,0.426,0.557,0.492,0.317,0.326,0.29,0.236,0.159,–,–,–,–,1.2,1.3,1.29,0.887
NCI-H2023,0.804,0.858,0.932,0.239,0.365,0.466,0.496,0.247,0.494,0.472,0.647,0.244,–,–,–,–,0.562,0.46,0.689,0.517
NCI-H2228,1.15,1.17,1.04,0.728,0.229,0.347,0.412,0.325,0.597,0.541,0.631,0.326,–,–,–,–,0.704,0.553,0.722,0.236
SK-LU-1,0.644,1.15,0.972,0.56,0.494,0.811,0.475,0.391,0.192,0.179,0.188,0.17,–,–,–,–,1.19,1.47,0.926,0.471
SK-MES-1,0.464,0.425,0.514,0.425,0.554,0.751,0.699,0.571,0.42,0.318,0.367,0.261,–,–,–,–,0.737,0.977,0.864,0.862
SW 900,–,–,–,–,0.547,0.474,0.656,0.554,0.609,0.568,0.65,0.48,0.669,0.628,0.684,0.522,–,–,–,–
SW 1573,1.31,1.11,1.14,0.919,0.319,0.389,0.454,0.275,0.551,0.492,0.474,0.236,–,–,–,–,0.87,0.805,0.933,0.632
UMC-11,0.839,1.12,1.32,0.626,0.381,0.365,0.355,0.277,0.407,0.502,0.785,0.38,–,–,–,–,–,1.24,1.27,0.613
